Data reported in patent US9266829B2, “Quinone compounds and their uses for the treatment of cancer” (Onco-NX Limited, priority 2012, dated 2016).
“Also recorded” adds a separate entry of the source.

Assays:
MDA468 cells = assay: Combination index at IC50 with other anti-cancer agents in MDA468 cells; assay type: cell-based, human
physchem [1] = assay type: physicochemical; details: buffer, pH 7
porcine liver esterase = assay: Degradation by porcine liver esterase; assay type: in vitro ADME; details: in words
Source text: (§1) The cleavage of Es5 by esterase and cell extracts and its activation were investigated.

esterase = assay: Degradation by porcine liver esterase; assay type: in vitro ADME; details: pig, porcine liver esterase
Source text: as §1

MDA-MB-468-MOCK = assay: In vivo hollow fibre assay, MDA-MB-468-MOCK; details: fibres at i.p. site; i.p. dosing days 3-6; nude mice; p<0.01
Method: (§2) The activity of Es5 (4.65) was evaluated in vivo against 3 cancer cell lines H460, MDA-MB-468-NQ01 and MDA-MB-468-MOCK using the in vivo hollow fibre assay (HFA), with fibres implanted at both intraperitoneal (i.p.) and subcutaneous (s.c.) sites. Es5 and the control agent Doxorubicin were administered as multiple doses by intraperitoneal injection (i.p.) on days 3, 4, 5 & 6 at 0.5 mg/kg/day and 2.5 mg/kg/day respectively.
(§3) Three human tumour cell lines were selected for analysis: H460 NSCLC (from ICT) and two breast carcinoma lines MDA-MB-468-NQ01 and MDA-MB-468-MOCK (both supplied by Onco-NX). Cells were cultured in RPMI 1640 cell culture medium supplemented with 1 mM sodium pyruvate, 2 mM L-glutamine and 10% foetal bovine serum (all from Sigma), and maintained as monolayer cultures at 37° C. in a humidified 5% CO2 environment.
Female Balb/C immunodeficient nude mice aged 6-8 weeks were used (Harlan UK, Blackthorn, UK). Mice were kept in cages housed in isolation cabinets in an air-conditioned room with regular alternating cycles of light and darkness. They received Teklad 2018 diet (Harlan, Blackthorn, UK) and water ad libitum. […]
(§4) Mice were sacrificed on day 7 post-implantation, fibres removed, and cell survival analysed using a modified MTT assay, comparing absorbances seen for the treated groups with the corresponding untreated control group. […]

H460 NSCLC = assay: In vivo hollow fibre assay, H460; details: i.p. dosing days 3-6, nude mice
Method: as §2, §3
Female Balb/C immunodeficient nude mice aged 6-8 weeks were used (Harlan UK, Blackthorn, UK). Mice were kept in cages housed in isolation cabinets in an air-conditioned room with regular alternating cycles of light and darkness. They received Teklad 2018 diet (Harlan, Blackthorn, UK) and water ad libitum. All animal procedures were carried out under a project licence issued by the UK Home Office and UKCCCR guidelines were followed throughout.
Cells were loaded into sterilised colour-coded PVDF Spectra/Por hollow fibres (HF) (Spectrum Medical Inc, Houston, Tex., USA). Briefly cells were harvested and resuspended in cell culture medium at the required cell density. This preparation was then loaded into the HF and the ends were clamped and heat-sealed. […]
as §4

MDA468 cell extract = assay: Cell lysate esterase reaction, MDA468 cell extract; assay type: in vitro ADME, human
Source text: as §1
(§5) The degradation of Es5 by esterases from cell lysate of the two cell lines MDA NQ01 and MDA468 was investigated.

esterases [2] = assay: Cell lysate esterase reaction, MDA468 cell extract; assay type: in vitro ADME, human; details: human, MDA468 cell extract (cell lysate)
Source text: as §1, §5

physchem [3] = assay type: physicochemical
Method: The stability of esters and their hydrolysis products was measured in solution. (50 μM Es5 in Tris buffer (0.1 mol dm^−3) at pH 7.4). Samples were taken at timed intervals up to 24 hours and analysed by HPLC. The detection wavelength was 330 nm. Chromatographic analysis was carried out by isocratic elution with 30:70 MeOH: Tris buffer (0.1 mol dm^−3, pH 7.4), at 1 ml min^−1. The chromatographic separation of the drug was achieved using a Hypersil ODS column with 250 mm×4.6 mm I.D.

MDA NQ01 = assay: IC50 by MTT assay on NQ01 cells; assay type: cell-based, human
MDA NQ01 cell extract = assay: Cell lysate esterase reaction, MDA NQ01 cell extract; assay type: in vitro ADME, human
Source text: as §1, §5

esterases [4] = assay: as above; assay type: in vitro ADME, human; details: human, MDA NQ01 cell line extract (cell lysate)
Source text: as §1, §5

NQ01 cells = assay: Combination index at IC50 with other anti-cancer agents in NQ01 cells; assay type: cell-based, human
[5] = test system: DT-diaphorase null MDA 468 cells; assay: Apoptosis by Annexin V binding, DT-diaphorase null MDA 468 cells; assay type: cell-based, human
Method: Based on the method described in Martin et al. (Journal of Experimental Medicine. 182, 1545-1556. 1995), the induction of apoptosis caused by the compounds of the present invention was determined.

serum esterase = assay: Degradation by serum esterase (hydrolysis in serum); assay type: in vitro ADME
Source text: as §1

MDA468NQ01 = assay: DNA damage, Comet assay, MDA468NQ01 cells; assay type: cell-based, human; details: 10 nM for 2 hrs, compared to H2O2 alone
Method: DNA damage was measured using the Comet assay to investigate the effect of Es5 on the comet head and tail intensities following treatment of MDA468NQ01 and the DT-diaphorase null MDA468 cell lines. […] Without wishing to be bound by any particular theory, the inventors believe that this must arise by a different mechanism such as 2×one electron reductions, rather than the 2 electron reduction that occurs with DT-diaphorase.

## CC(=O)OCCCC1=C(N2CC2)C(=O)C(C)=C(N2CC2)C1=O [Es5, Acetic Acid 3-(2,5-bis-aziridin-1-yl-4-methyl-3,6-dioxo-cyclohexa-1,4-dienyl)-propyl ester]
MDA468 cells; with ARC-C
  Combination index at IC50 with ARC-C in MDA468 cells: 1.2 (slight
MDA468 cells
  Combination index at IC50 with Cis-platinum in MDA468: synergy
  Combination index at IC50 with Docetaxel in MDA468 cells: moderately inhibitory effect
  Combination Index at IC50 with Mitomycin C in MDA468 cells: slight antagonism
  Combination index at IC50 with cobalt chloride in MDA468 cells: strong synergy
MDA468 cells; listed as Es5 (4.65)
  Combination index at IC50 with Cis-platinum in MDA468: 0.567 (synergy)
  Combination index at IC50 with Docetaxel in MDA468 cells: 1.387 (moderately
  Combination Index at IC50 with Mitomycin C in MDA468 cells: 1.4 (slight
  Combination index at IC50 with cobalt chloride in MDA468 cells: 0.464 (strong
MDA468 cells; with Epirubicin
  Combination index at IC50 with Epirubicin in MDA468 cells: 1.49 (antagonism)
Physchem [1]
  half-life at 50 μM: > 24 h
Porcine liver esterase
  cleavage by porcine esterase to hydrolysis product: rapidly cleaved
esterase
  half-life: 1 min
MDA-MB-468-MOCK
  cell survival compared to the untreated control, MDA-MB-468-MOCK, i.p. site: significant efficacy
H460 NSCLC; fibres at i.p. site, p<0.01
  cell survival compared to the untreated control, H460, i.p. site: significant efficacy
H460 NSCLC; fibres at s.c. site
  cell survival compared to the untreated control, H460, s.c. site: significant efficacy
MDA468 cell extract; human, MDA468 cell extract (cell lysate)
  Degradation by MDA468 cell extract, rate: (19.6 nmoles/hr/10^6 nmoles/hr/10^6 cells
MDA468 cell extract; in words, compared with MDA468 NQ01 extract
  cleavage of the ester by MDA 468 cell extract: much reduced rate; also recorded: appreciably lower rate
Esterases [2]
  half-life: 4.67 h
Physchem [3]
  more stable than other esters based on RH1: > 20 times
Physchem [3]; buffer, pH 7.4
  half-life at 50 μM: > 24 h
MDA NQ01; Homo sapiens, MTT assay
  IC50: 230 pM
MDA NQ01; IC50 values, MTT assay
  selectivity towards cells that express DT-diaphorase: excellent selectivity
MDA NQ01; ratio of IC50 values
  MDA468 to NQ01 differential: > 80 fold
MDA NQ01 cell extract; human, MDA NQ01 cell line extract (cell lysate)
  Degradation by MDA NQ01 cell extract, rate: (11.25 nmoles/hr/10^6 nmoles/hr/10^6 cells
MDA NQ01 cell extract; in words
  cleavage of the ester by MDA468 NQ01 cell extract: rapidly cleaved
Esterases [4]; Degradation by MDA NQ01 cell extract, t1/2
  half-life: 2.67 h
Esterases [4]; room temperature, degraded to the alcohol 4.61, read-out: half-life in MDA NQ01 cell line extract
  half-life: ~2.67 h
NQ01 cells; with ARA-C
  Combination index at IC50 with ARA-C in NQ01 cells: 1.22 (slight
NQ01 cells
  Combination index at IC50 with Cis-platinum in MDA NQ01: synergy
  Combination index at IC50 with Docetaxel in NQ01 cells: additive effect
  Combination Index at IC50 with Mitomycin C in NQ01 cells: additive effect
  Combination index at IC50 with cobalt chloride in NQ01 cells: strong synergy
NQ01 cells; listed as Es5 (4.65)
  Combination index at IC50 with Cis-platinum in MDA NQ01: 0.674 (synergy)
  Combination index at IC50 with Docetaxel in NQ01 cells: 0.964 (additive)
  Combination Index at IC50 with Mitomycin C in NQ01 cells: 0.924 (additive)
  Combination index at IC50 with cobalt chloride in NQ01 cells: 0.54
NQ01 cells; with Epirubicin
  Combination index at IC50 with Epirubicin in NQ01 cells: 2.04 (antagonism)
[5]; 2 hours
  apoptosis (Annexin V binding) at 2 hours: no death is seen
[5]; after 4 hrs
  apoptosis (Annexin V binding) after 4 hrs: reduced level of apoptosis
Serum esterase; T90 = time taken to degrade to 90% of starting concentration
  Degradation by serum esterase, t90: t90 90 mins
Serum esterase; serum, read-out: hydrolysis in serum, t1/2
  half-life: 1.67 h
MDA468NQ01
  Comet assay head and tail intensities (DNA cross-linking): increased the proportion of DNA in the head
